“And” between values parts separate entries of the source, which are not always exact repeats. Identical values can stand only once. Like-named read-outs stand apart in the source and are kept apart here.
Tests used:
ROCK2 = ROCK2 (Homo sapiens (Human), UniProt O75116); test: ROCK2 ADP-Glo kinase enzyme inhibition assay; type: biochemical
Procedure: (§1) We measured ROCK and PKA kinase enzyme activity inhibition by compounds using commercially available ROCK1 (Promega Corporation, cat #V9581), ROCK2 (Promega, cat #V4045), and PKA kinase (Promega, cat #V4247) ADP-Glo™ assay kits. ADP-Glo™ Kinase Assay is a luminescent ADP detection assay that provides a homogeneous method to measure kinase activity by quantifying the amount of ADP produced during a kinase reaction. The assay is performed in two steps. First, after the kinase reaction, an equal volume of ADP-Glo™ Reagent is added to terminate the kinase reaction and deplete the remaining ATP. Second, the Kinase Detection Reagent is added to simultaneously convert ADP to ATP and allow the newly synthesized ATP to be measured using a luciferase/luciferin reaction. The light generated is measured using a luminometer. A complete protocol is included with the kits and is also available at the Promega website. The assay is briefly described below. • 1. Diluted enzyme, substrate, ATP, and compounds (inhibitors) in Kinase Buffer (40 mM Tris, 7.5, 20 mM MgCl2, 0.1 mg/ml BSA, 50 μM DTT). • 2. Added 1 μl of inhibitor, 2 μl of enzyme and 2 μl of substrate/ATP mix to the wells of 384-well low volume nonbinding assay plate A series of three-fold dilution of inhibitor was prepared and assayed for each inhibitor. • 3. Incubated at room temperature for 60 minutes. • 4. Added 5 μl of ADP-Glo™ Reagent. • 5. Incubated at room temperature for 60 minutes. • 6. Added 10 μl of Kinase Detection Reagent • 7. Incubated at room temperature for 30 minutes.
(§2) Recorded luminescence (Integration time 1 second) using a plate-based luminometer.
(§3) Calculated Percent Enzyme Activity: First subtract the signal of the negative control (no enzyme and no inhibitor) from each sample's signal. Then use the mean relative light units (RLU) values for the 0% kinase activity (neither inhibitor nor enzyme) and the 100% kinase activity (no compound) to calculate the other percent enzyme activities remaining in the presence of the different dilutions of inhibitor.
Inhibitor stock solutions of 10 mM are made in DMSO and stored at −20° C. Dilutions were made in assay buffer immediately before use.

ROCK1 = ROCK1 (Homo sapiens (Human), UniProt Q13464); test: ROCK1 ADP-Glo kinase enzyme inhibition assay; type: biochemical
ROCK1, sequence (Q13464 whole entry): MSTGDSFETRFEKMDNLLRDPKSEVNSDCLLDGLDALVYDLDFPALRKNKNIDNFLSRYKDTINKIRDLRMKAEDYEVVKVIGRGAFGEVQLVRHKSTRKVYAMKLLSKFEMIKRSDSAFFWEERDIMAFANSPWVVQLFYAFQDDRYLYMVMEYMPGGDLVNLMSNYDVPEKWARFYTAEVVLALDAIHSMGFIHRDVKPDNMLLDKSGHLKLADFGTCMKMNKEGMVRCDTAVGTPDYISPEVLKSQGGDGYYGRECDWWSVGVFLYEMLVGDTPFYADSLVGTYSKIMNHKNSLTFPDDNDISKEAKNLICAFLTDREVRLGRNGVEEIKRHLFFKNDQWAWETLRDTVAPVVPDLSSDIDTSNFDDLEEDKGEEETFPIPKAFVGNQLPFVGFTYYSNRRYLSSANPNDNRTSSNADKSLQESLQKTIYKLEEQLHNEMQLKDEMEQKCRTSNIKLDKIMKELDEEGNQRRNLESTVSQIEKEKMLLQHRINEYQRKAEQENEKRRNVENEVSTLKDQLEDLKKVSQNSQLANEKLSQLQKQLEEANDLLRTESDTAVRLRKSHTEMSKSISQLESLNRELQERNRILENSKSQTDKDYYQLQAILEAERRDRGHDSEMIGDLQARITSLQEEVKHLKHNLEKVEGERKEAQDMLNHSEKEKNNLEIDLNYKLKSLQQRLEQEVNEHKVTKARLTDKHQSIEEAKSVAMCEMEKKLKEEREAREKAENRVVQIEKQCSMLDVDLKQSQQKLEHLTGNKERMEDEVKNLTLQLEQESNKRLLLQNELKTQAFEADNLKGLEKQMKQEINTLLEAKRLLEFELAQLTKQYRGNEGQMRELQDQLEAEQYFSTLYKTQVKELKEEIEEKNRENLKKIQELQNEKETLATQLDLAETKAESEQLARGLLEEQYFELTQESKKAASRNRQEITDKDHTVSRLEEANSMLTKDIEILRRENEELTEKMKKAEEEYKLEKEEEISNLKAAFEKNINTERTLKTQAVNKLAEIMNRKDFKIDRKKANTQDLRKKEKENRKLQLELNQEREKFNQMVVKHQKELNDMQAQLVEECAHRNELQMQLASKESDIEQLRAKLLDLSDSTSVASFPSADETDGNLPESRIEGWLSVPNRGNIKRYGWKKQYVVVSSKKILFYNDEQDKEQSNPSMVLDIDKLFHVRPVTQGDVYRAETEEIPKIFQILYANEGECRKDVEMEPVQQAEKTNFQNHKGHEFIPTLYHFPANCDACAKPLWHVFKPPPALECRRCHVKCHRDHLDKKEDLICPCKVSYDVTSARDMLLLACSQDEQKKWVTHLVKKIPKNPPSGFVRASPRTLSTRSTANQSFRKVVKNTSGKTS
Procedure: as §1, §2
as §3, with “inhibitor. […]” for “inhibitor.”

PKA = PKA (Homo sapiens (Human), UniProt P17612); test: PKA ADP-Glo kinase enzyme inhibition assay; type: biochemical; conditions: read-out: PKAIC50
Procedure: as §1, with “Added 1 μl of inhibitor, 2 μl of enzyme and 2 μl of substrate/ATP mix to the wells of 384-well low volume nonbinding assay plate A series of three-fold dilution of inhibitor was prepared and assayed for each inhibitor. • 3. Incubated at room temperature for 60 minutes. • 4. Added 5 μl of ADP-Glo™ Reagent. • 5. Incubated at room temperature for 60 minutes. • 6. Added 10 μl of Kinase Detection Reagent • 7. Incubated at room temperature for 30 minutes.” left out
as §2
Calculated Percent Enzyme Activity: First subtract the signal of the negative control (no enzyme and no inhibitor) from each sample's signal. […]

Caco-2 Permeability = type: in vitro ADME; conditions: human
Procedure: (§4) Caco-2 Permeability. Experiment was conducted by Absorption Systems. Caco-2 cells (clone C2BBe1) were obtained from American Type Culture Collection (Manassas, VA). Cell monolayers were grown to confluence on collagen-coated, microporous membranes in 12-well assay plates. The permeability assay buffer was Hanks' balanced salt solution containing 10 mM HEPES and 15 mM glucose at a pH of 7.4. The buffer in the receiver chamber also contained 1% bovine serum albumin. The dosing solution concentration was 5 μM of test article in the assay buffer. Cell monolayers were dosed on the apical side (A-to-B) or basolateral side (B-to-A) and incubated at 37° C. with 5% CO2 in a humidified incubator. Samples were taken from the donor and receiver chambers at 120 minutes. Each determination was performed in duplicate. The flux of lucifer yellow was also measured post-experimentally for each monolayer to ensure no damage was inflicted to the cell monolayers during the flux period. […] Permeability calculations were performed as per Absorption Systems protocol, Table 23.

Caco-2 cells = test: Caco-2 Permeability; type: in vitro ADME; conditions: Caco-2
Procedure: as §4

[1] = system: MDR1-MDCK cell monolayers; test: MDR1-MDCK Permeability; type: in vitro ADME; conditions: MDR1-MDCK
Procedure: as §4, with “MDR1-MDCK” for “Caco-2”, “MDR1-MDCK cell” for “Caco-2 cells (clone C2BBe1) were obtained from American Type Culture Collection (Manassas, VA). Cell”, “post experimentally” for “post-experimentally”, “24.” for “23.”

MDR1 = test: MDR1-MDCK Permeability; type: in vitro ADME; conditions: dog
Procedure: as §4, with “MDR1-MDCK” for “Caco-2”, “MDR1-MDCK cell” for “Caco-2 cells (clone C2BBe1) were obtained from American Type Culture Collection (Manassas, VA). Cell”, “post experimentally” for “post-experimentally”, “24.” for “23.”

Phospho-MYPT1 Thr853 = test: Inhibition of MYPT1 phosphorylation in human trabecular meshwork (hTM) cells, western blot
Procedure: The outflow of aqueous humor across the trabecular meshwork (TM) is regulated by, among other factors, actomyosin contraction of the TM cells and altered extracellular matrix. ROCK is known to inhibit the phosphatase activity of myosin light chain phosphatase (MLCP) by phosphorylating MYPT1 at amino acids Thr696 and Thr853. […] Media with inhibitors was suctioned off, wells washed 2 times with cold PBS pH 7.4 buffer, and attached cells were scrapped off with 500 μl (T75 flasks) or 100 μl (6-well plates) SDS-PAGE sample buffer, and collected into 1.5 ml microcentrifuge tubes. • 5.
Two days before compound addition 6-well plates were seeded at a density of 75,000 cells/well. On the day of compound addition media was replaced with 3 ml fresh media containing compounds at different concentration. Fifteen hours after compound addition cells in each well were lysed with 0.2 ml extraction buffer (SDS-PAGE sample buffer containing […] and protease inhibitors) and extracts were collected.
Compounds (10 μM) were added to hTM cells cultured in 60 mm plates and cell extracts collected after […]. Cells were lysed with 0.2 ml lysis buffer and 20 μl extract was loaded in each lane (FIG. 7).

primary hTM cells [2] = test: RealTime-Glo MT cell viability assay in hTM cells; type: cell-based; conditions: for Cell viability compared to DMSO controls: 30 uM and 10 μm; for Cell viability: 3.33 μm
Source text: (§5) Commercially available RealTime-Glo™ MT cell viability (Promega, catalog #G9712) and CellTox™ Green cytotoxicity (Promega, catalog #G8731) assays were used in assessing effect of compounds on primary hTM cell viability and cytotoxicity. The RealTime-Glo™ MT cell viability assay is a nonlytic, homogeneous, bioluminescent method that determines the number of viable cells in culture by measuring the reducing potential of cells and thus metabolism (MT). Viable cells reduce the proprietary pro-substrate to generate a substrate for NanoLuc® luciferase. This substrate diffuses from cells into the surrounding culture medium, where it is rapidly used by the NanoLuc® Enzyme to produce a luminescent signal. In a contrasting and complementary manner, CellTox™ Green cytotoxicity assay measures changes in membrane integrity that occur as a result of cell death. This assay system uses a proprietary asymmetric cyanine dye that is excluded from viable cells but preferentially stains the dead cells' DNA. The fluorescent signal produced by the dye binding to the dead-cell DNA is proportional to cytotoxicity.
Human™ cells were cultured and maintained as described in Example 12. Fifty μl cells (600 cells) in culture media containing compound, 25 μl media with RealTime-Glo™ MT cell viability assay reagent and 25 μl media with CellTox™ Green cytotoxicity assay reagent were plated in black, clear bottom 96-well plates. Light emitted by luciferase and fluorescence emitted by dye binding to DNA (excitation 485 nm and emission 525 nm) were measured at 24 h, 48 h, and 72 h after incubation using plate based luminescence and fluorescence plate readers.

primary hTM cells [3] = test: CellTox Green cytotoxicity assay in hTM cells; type: cell-based; conditions: 24 h, 48 h, 72 h
Source text: as §5, with “The fluorescent signal produced by the dye binding to the dead-cell DNA is proportional to cytotoxicity.” left out
Human™ cells were cultured and maintained as described in Example 12. […] Light emitted by luciferase and fluorescence emitted by dye binding to DNA (excitation 485 nm and emission 525 nm) were measured at 24 h, 48 h, and 72 h after incubation using plate based luminescence and fluorescence plate readers.

[4] = system: New Zealand White rabbits; conditions: 0.1 ml of 5 mg/ml
Source text: The right eye that was not treated served as the control. […] The eyes of initial and confirmatory test animals were examined with slit lamp for ocular lesions. […] The animals were also observed for clinical signs of toxicity, morbidity and mortality.

Solubility in saline = type: physicochemical
hTM cells = test: hTM cell morphology changes (microscopy); conditions: for hTM cell morphology: 20 hours
HEK293 cells = test: CellTiter-Glo Luminescent Cell Viability Assay; conditions: HEK293 cells, two days
Procedure: We used CellTiter-Glo® Luminescent Cell Viability Assay (Promega, cat #G7573) to determine the number of viable cells in culture based on quantitation of the ATP present, which signals the presence of metabolically active cells. • 1. Prepared HEK293 suspension culture cells (ThermoFisher, cat #A14635) and added 50 μl cells in media (12,500 cells) to each well of a white, opaque-walled 96-well plate in triplicate. • 2. […] Incubated at 37° C. and 5% CO2 for two days. • 4. Added 100 μl of CellTiter-Glo® Reagent to each well and mix contents for 2 minutes on an orbital shaker to induce cell lysis. • 5. Recorded luminescence using a plate luminometer.

ROCK2, sequence (O75116 whole entry): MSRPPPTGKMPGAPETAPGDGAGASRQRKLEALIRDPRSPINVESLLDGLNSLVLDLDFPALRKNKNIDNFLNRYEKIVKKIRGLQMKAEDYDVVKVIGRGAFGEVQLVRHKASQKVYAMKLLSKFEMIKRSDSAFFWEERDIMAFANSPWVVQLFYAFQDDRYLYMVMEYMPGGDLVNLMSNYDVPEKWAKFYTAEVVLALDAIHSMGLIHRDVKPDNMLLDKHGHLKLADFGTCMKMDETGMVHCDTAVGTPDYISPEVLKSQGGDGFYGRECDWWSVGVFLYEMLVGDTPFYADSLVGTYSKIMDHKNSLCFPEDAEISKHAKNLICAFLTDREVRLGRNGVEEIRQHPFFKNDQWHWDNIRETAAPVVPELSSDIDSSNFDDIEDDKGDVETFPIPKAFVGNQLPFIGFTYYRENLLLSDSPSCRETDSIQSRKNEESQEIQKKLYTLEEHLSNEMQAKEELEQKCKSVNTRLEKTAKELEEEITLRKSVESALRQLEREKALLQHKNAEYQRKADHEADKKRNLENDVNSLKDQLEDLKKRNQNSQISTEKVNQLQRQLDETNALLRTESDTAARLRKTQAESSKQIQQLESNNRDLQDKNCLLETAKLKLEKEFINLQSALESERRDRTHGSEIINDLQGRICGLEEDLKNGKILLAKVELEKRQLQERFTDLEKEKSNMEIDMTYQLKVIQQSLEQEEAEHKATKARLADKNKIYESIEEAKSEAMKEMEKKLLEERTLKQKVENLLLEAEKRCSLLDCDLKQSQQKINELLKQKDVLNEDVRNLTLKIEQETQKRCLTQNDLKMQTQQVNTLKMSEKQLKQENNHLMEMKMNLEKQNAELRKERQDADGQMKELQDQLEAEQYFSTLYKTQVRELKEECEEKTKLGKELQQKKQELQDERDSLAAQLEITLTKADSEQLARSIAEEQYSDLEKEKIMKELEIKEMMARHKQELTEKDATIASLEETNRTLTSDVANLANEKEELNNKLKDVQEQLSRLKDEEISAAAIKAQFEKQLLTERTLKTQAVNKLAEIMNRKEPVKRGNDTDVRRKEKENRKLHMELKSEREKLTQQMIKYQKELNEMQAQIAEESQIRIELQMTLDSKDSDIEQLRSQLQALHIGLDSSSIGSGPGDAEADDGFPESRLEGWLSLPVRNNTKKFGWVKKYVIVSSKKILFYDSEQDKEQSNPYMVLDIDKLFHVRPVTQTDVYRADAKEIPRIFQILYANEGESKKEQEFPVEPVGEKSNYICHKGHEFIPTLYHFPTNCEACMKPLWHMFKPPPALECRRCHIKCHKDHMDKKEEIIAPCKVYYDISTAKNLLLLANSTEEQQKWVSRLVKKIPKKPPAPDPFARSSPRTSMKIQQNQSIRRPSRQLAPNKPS

## Cl.Cl.NCC(C(=O)Nc1ccc2cnccc2c1)c1ccc(B(O)O)cc1 (centres unmarked) [Compound 10]
ROCK2; Exp #1, read-out: ROCK2 IC50(Exp #1)
  IC50: 27 nM
ROCK2; Exp #2, read-out: ROCK2 IC50(Exp #2)
  IC50: 26 nM
ROCK2; Exp #3, read-out: ROCK2 IC50(Exp #3)
  IC50: 26 nM and 15 nM
ROCK2; average of two lots of compound 10 and compound 10.2HCl, read-out: average IC50 estimate against ROCK2
  IC50: 25 nM
ROCK1; average of two lots of compound 10 and compound 10.2HCl, read-out: average IC50 estimate against ROCK1
  IC50: 84 nM
ROCK1; read-out: ROCK1 IC50
  IC50: 137 nM and 62 nM
PKA
  IC50: 52 nM
Caco-2 Permeability; Caco-2, pH 7.4
  efflux ratio at 120 min, 5 μM: 2.58
Caco-2 Permeability; Caco-2, pH 7.4, A to B
  recovery at 120 min, 5 μM: 108%
Caco-2 Permeability; Caco-2, pH 7.4, A to B, read-out: Papp Avg
  Papp at 120 min, 5 μM: 0.192 ×10⁻⁶ cm/s
Caco-2 Permeability; Caco-2, pH 7.4, A to B, read-out: Papp R1
  Papp at 120 min, 5 μM: 0.209 ×10⁻⁶ cm/s
Caco-2 Permeability; Caco-2, pH 7.4, A to B, read-out: Papp R2
  Papp at 120 min, 5 μM: 0.176 ×10⁻⁶ cm/s
Caco-2 Permeability; Caco-2, pH 7.4, B to A
  recovery at 120 min, 5 μM: 103%
Caco-2 Permeability; Caco-2, pH 7.4, B to A, read-out: Papp Avg
  Papp at 120 min, 5 μM: 0.496 ×10⁻⁶ cm/s
Caco-2 Permeability; Caco-2, pH 7.4, B to A, read-out: Papp R1
  Papp at 120 min, 5 μM: 0.565 ×10⁻⁶ cm/s
Caco-2 Permeability; Caco-2, pH 7.4, B to A, read-out: Papp R2
  Papp at 120 min, 5 μM: 0.426 ×10⁻⁶ cm/s
Caco-2 cells
  Absorption Potential Classification: low (Papp(A to B) < 1 × 10^−6 cm/s: low)
  Significant Efflux: No
[1]
  Brain Penetration Classification: low
MDR1; MDCK-MDR1, pH 7.4, A to B
  recovery at 120 min, 5 μM: 95.5%
MDR1; MDCK-MDR1, pH 7.4, A to B, read-out: Papp Avg
  Papp at 120 min, 5 μM: < 0.0566 ×10⁻⁶ cm/s
MDR1; MDCK-MDR1, pH 7.4, A to B, read-out: Papp R1
  Papp at 120 min, 5 μM: < 0.0566 ×10⁻⁶ cm/s
MDR1; MDCK-MDR1, pH 7.4, A to B, read-out: Papp R2
  Papp at 120 min, 5 μM: < 0.0566 ×10⁻⁶ cm/s
MDR1; MDCK-MDR1, pH 7.4, B to A
  recovery at 120 min, 5 μM: 91.1%
MDR1; MDCK-MDR1, pH 7.4, B to A, read-out: Papp Avg
  Papp at 120 min, 5 μM: < 0.0772 ×10⁻⁶ cm/s
MDR1; MDCK-MDR1, pH 7.4, B to A, read-out: Papp R2
  Papp at 120 min, 5 μM: < 0.0772 ×10⁻⁶ cm/s

## Cc1ccc(C(=O)OCc2ccc([C@@H](CN)C(=O)Nc3ccc4cnccc4c3)cc2)c(C)c1.Cl.Cl [Netarsudil.2HCl]
Phospho-MYPT1 Thr853; 2.5 μM inhibitors
  Inhibition of MYPT1 Thr853 phosphorylation (western blot): inhibited phosphorylation of MYPT1
Phospho-MYPT1 Thr853; 10 μM inhibitors, 7 hours
  Inhibition of MYPT1 Thr853 phosphorylation (western blot): completely inhibited MYPT1 phosphorylation
Phospho-MYPT1 Thr853; 10 μM, fifteen hours
  Amount of protein in lane (toxicity): much lower amount of protein because of toxicity
Primary hTM cells [2]; 1.11 μM
  reduction in viability: 10%
Primary hTM cells [2]; within 24 h
  Cell viability compared to DMSO controls: < 2%
Primary hTM cells [2]; within 48 h
  Cell viability compared to DMSO controls: < 0.1%
Primary hTM cells [2]; 24 h
  Cell viability: 53%
Primary hTM cells [2]; 48 h
  Cell viability: 15%
Primary hTM cells [2]; 72 h
  Cell viability: 9%
Primary hTM cells [3]
  Cytotoxicity / membrane integrity (in words): concentration dependent
[4]
  eye irritation classification: irritating
  mean score Iris: 2.0
  mean score conjunctival oedema (chemosis): 4.0
  mean score conjunctival redness: 3.0
  mean score corneal opacity: 3.0
Solubility in saline
  solubility in saline: ≤ 5000 µg/mL
hTM cells; 10 μM
  hTM cell morphology: became small and round
hTM cells; […] and 3.3 μM
  hTM cell morphology: started contracting and detaching from plate
hTM cells; hTM cells, 30, 10, 3.33, or 1.11 μM, 24 hours
  cellular morphological changes: affected cell morphology starting at 1.11 μM showing cell contraction and becoming round and small at 10 μM
HEK293 cells; 2.5 μM
  reduction in ATP levels: 80%
HEK293 cells; 25 μM
  reduction in ATP levels: 96%

Reference: US12479866B2, “Boron-containing rho kinase inhibitors” (Percipiad, Inc., priority 2019, dated 2025)
